Assay results as given in ChEMBL document CHEMBL5257089, “Gamabufotalin Induces Apoptosis and Cytoprotective Autophagy through the mTOR Signaling Pathway in Hepatocellular Carcinoma” (J Nat Prod, 2023).
Residues, ends and D or L forms follow the SMILES beside them. *: point of attachment. Cbz = O=C(OCc1ccccc1)*; CH2F = FC*

How the values were obtained:
Type in all cases: functional
Huh-7 [1] = experiment: Induction of apoptosis in human Huh-7 cells assessed as early apoptotic cells at 10 nM measured after 48 hrs by annexin V-FITC/Propidium iodide staining based flow cytometric analysis (reference value: 2.2%)
Huh-7 [2] = experiment: Induction of apoptosis in human Huh-7 cells assessed as necrotic cells at 10 nM measured after 48 hrs by annexin V-FITC/Propidium iodide staining based flow cytometric analysis (reference value: 0.0%)
Huh-7 [3] = experiment: Induction of apoptosis in human Huh-7 cells assessed as viable cells at 10 nM measured after 48 hrs by annexin V-FITC/Propidium iodide staining based flow cytometric analysis (reference value: 91.7%); conditions: read-out: Activity
Huh-7 [4] = experiment: Induction of apoptosis in human Huh-7 cells assessed as necrotic cells at 10 nM measured after 48 hrs in presence of gamabufotalin by annexin V-FITC/Propidium iodide staining based flow cytometric analysis (reference value: 0.0%)
Huh-7 [5] = experiment: Induction of apoptosis in human Huh-7 cells assessed as early apoptotic cells at 10 nM measured after 48 hrs in presence of gamabufotalin by annexin V-FITC/Propidium iodide staining based flow cytometric analysis (Rvb =2.2%)
Hep 3B2 [6] = experiment: Induction of apoptosis in human Hep3B cells assessed as early apoptotic cells at 10 nM measured after 48 hrs by annexin V-FITC/Propidium iodide staining based flow cytometric analysis (reference value: 1.6%)
Hep 3B2 [7] = experiment: Induction of apoptosis in human Hep3B cells assessed as viable cells at 10 nM measured after 48 hrs in presence of gamabufotalin by annexin V-FITC/Propidium iodide staining based flow cytometric analysis (reference value: 95.6%); conditions: read-out: Activity
Hep 3B2 [8] = experiment: Induction of apoptosis in human Hep3B cells assessed as necrotic cells at 10 nM measured after 48 hrs in presence of gamabufotalin by annexin V-FITC/Propidium iodide staining based flow cytometric analysis (reference value: 0.3%)
Hep 3B2 [9] = experiment: Induction of apoptosis in human Hep3B cells assessed as late apoptotic cells at 10 nM measured after 48 hrs in presence of gamabufotalin by annexin V-FITC/Propidium iodide staining based flow cytometric analysis (reference value: 2.4%)
Hep 3B2 [10] = experiment: Induction of apoptosis in human Hep3B cells assessed as early apoptotic cells at 10 nM measured after 48 hrs in presence of gamabufotalin by annexin V-FITC/Propidium iodide staining based flow cytometric analysis (reference value: 1.6%)
Hep 3B2 [11] = experiment: Induction of apoptosis in human Hep3B cells assessed as necrotic cells at 10 nM measured after 48 hrs by annexin V-FITC/Propidium iodide staining based flow cytometric analysis (reference value: 0.3%)
Huh-7 [12] = experiment: Induction of apoptosis in human Huh-7 cells assessed as late apoptotic cells at 10 nM measured after 48 hrs by annexin V-FITC/Propidium iodide staining based flow cytometric analysis (reference value: 6.1%)
Hep 3B2 [13] = experiment: Induction of apoptosis in human Hep3B cells assessed as viable cells at 10 nM measured after 48 hrs by annexin V-FITC/Propidium iodide staining based flow cytometric analysis (reference value: 95.6%); conditions: read-out: Activity
Huh-7 [14] = experiment: Induction of apoptosis in human Huh-7 cells assessed as viable cells at 10 nM measured after 48 hrs in presence of gamabufotalin by annexin V-FITC/Propidium iodide staining based flow cytometric analysis (reference value: 91.7%); conditions: read-out: Activity
Hep 3B2 [15] = experiment: Induction of apoptosis in human Hep3B cells assessed as late apoptotic cells at 10 nM measured after 48 hrs by annexin V-FITC/Propidium iodide staining based flow cytometric analysis (reference value: 2.4%)
Huh-7 [16] = experiment: Induction of apoptosis in human Huh-7 cells assessed as late apoptotic cells at 10 nM measured after 48 hrs in presence of gamabufotalin by annexin V-FITC/Propidium iodide staining based flow cytometric analysis (reference value: 6.1%)

## CC(C)[C@H](NC(=O)OCc1ccccc1)C(=O)N[C@@H](C)C(=O)N[C@@H](CC(=O)O)C(=O)CF (Cbz-Val-Ala-Asp-CH2F)
Huh-7 [1]
  Activity: 2.7%
Huh-7 [2]
  Activity: 0.1%
Huh-7 [3]
  viability at 0.01 µM: 90.3%
Huh-7 [4]
  Activity: 0.3%
Huh-7 [5]
  Activity: 3.3%
Hep 3B2 [6]
  Activity: 2.6%
Hep 3B2 [7]
  viability at 0.01 µM: 91.9%
Hep 3B2 [8]
  Activity: 0.3%
Hep 3B2 [9]
  Activity: 3.5%
Hep 3B2 [10]
  Activity: 4.4%
Hep 3B2 [11]
  Activity: 0.3%
Huh-7 [12]
  Activity: 6.9%
Hep 3B2 [13]
  viability at 0.01 µM: 93.5%
Huh-7 [14]
  viability at 0.01 µM: 89%
Hep 3B2 [15]
  Activity: 3.6%
Huh-7 [16]
  Activity: 7.4%
